Source: ChEMBL document CHEMBL4017467, “Generation of tricyclic imidazo[1,2-a]pyrazines as novel PI3K inhibitors by application of a conformational restriction strategy” (Bioorg Med Chem Lett, 2017)

How the values were obtained:
in vitro [1] = conditions: rat, liver microsomes
in vitro [2] = conditions: human, liver microsomes

## CS(=O)(=O)N1CCN(Cc2cn3cc(-c4cnc(N)nc4)nc(N4CCOCC4)c3n2)CC1
In vitro [1]
  remaining at 0.25 h, 1 µM: 99%
In vitro [2]
  remaining at 0.25 h, 1 µM: 93%
